The record followed here is patent US20260092061A1, “COMPOUNDS FOR TARGETED PROTEIN DEGRADATION” (Amphista Therapeutics Limited, priority 2022, published 2026).

Assay [1] addresses T1, BRD9 (Homo sapiens, UniProt Q9H8M2).
T1 sequence (Q9H8M2 1-597): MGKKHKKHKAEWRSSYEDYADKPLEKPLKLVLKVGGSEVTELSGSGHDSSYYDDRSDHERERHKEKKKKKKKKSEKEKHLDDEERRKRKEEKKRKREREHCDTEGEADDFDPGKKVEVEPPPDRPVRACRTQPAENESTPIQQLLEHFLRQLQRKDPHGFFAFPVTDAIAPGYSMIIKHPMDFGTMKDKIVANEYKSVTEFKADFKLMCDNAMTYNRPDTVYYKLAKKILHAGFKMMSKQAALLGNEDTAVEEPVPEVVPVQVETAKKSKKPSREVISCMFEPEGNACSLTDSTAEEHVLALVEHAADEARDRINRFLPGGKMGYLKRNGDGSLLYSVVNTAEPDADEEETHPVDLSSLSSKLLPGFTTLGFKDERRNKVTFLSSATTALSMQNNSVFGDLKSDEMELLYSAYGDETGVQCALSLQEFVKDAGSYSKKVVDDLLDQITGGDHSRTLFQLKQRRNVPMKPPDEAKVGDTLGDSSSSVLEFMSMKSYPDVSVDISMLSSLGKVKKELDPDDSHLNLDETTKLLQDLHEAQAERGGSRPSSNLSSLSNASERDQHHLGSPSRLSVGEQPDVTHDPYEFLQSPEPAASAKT
Briefly: BRD9 degradation, HiBiT-BRD9 KI HEK293 (LgBiT) cells, NanoGlo Lytic Endpoint assay (Assay Protocol 1). Type of assay: cell-based. The essentials:
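HiBiT-tagged BRD9 knock-in HEK293 (LgBiT) cells exposed to compounds for 6 h at 37 °C, 5% CO2. Residual BRD9 measured by HiBiT lytic luminescence. % BRD9 remaining normalised to DMSO-treated cells (high) and no-cell wells (low).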
(The HiBiT peptide binds its large partner to form an active luciferase.)

The target in assay [2] is T1, BRD9. Briefly: Degradation of BRD9 (IF), immunofluorescence in MV4-11 cells, 24 hours (Assay Protocol 2). Type of assay: cell-based. Also on record: A suspension of MV4-11 cells (ATCC CRL-9591) was prepared; host or cells: MV4-11. Particulars: Table 2, BRD9 degradation (IF), Assay Protocol 2, MV4-11 cells; for Dmax: read-out: Assay 2 DCmax; for DC50: read-out: Assay 2 DC50. The essentials:
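MV4-11 cells treated with compound 24 h at 37° C., then fixed, permeabilised and immunostained for BRD9 (anti-BRD9 E4Q3F, Alexa 647 secondary, Hoechst counterstain). High-content imaging quantified nuclear BRD9 signal; % BRD9 remaining normalised to DMSO and 100 nM CFT-8634 controls.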

The mark [3] stands for this setting: HEK293; Table 2; BRD9 degradation, Assay Protocol 1; 1 μM compound at 6 h of treatment; read-out: Assay 1 Dmax.
Where [4] appears, read: Table 2; BRD9 degradation, Assay Protocol 1; 6 h of treatment; read-out: Assay 1 DC50.

Read-outs that look alike come from different tables or passages of the source. Bounds are passed on as bounds.

Consider `COc1cc(-c2cn(C)c(=O)c(C)c2C)cc(OC)c1CN1CCN(Cc2cccc3c2CCN(C(=O)/C(C#N)=C/C(C)(C)C)C3C)CC1` (mixture of isomers) [Compound A7, (E/Z)-2-(5-((4-(2,6-dimethoxy-4-(1,4,5-trimethyl-6-oxo-1,6-dihydropyridin-3-yl)benzyl)piperazin-1-yl)methyl)-1-methyl-1,2,3,4-tetrahydroisoquinoline-2-carbonyl)-4,4-dimethylpent-2-enenitrile], for which, in assay [1] (setting [3]), the Dmax at 1 µM fell in the range of 40 to 70%. Also, the half-maximal degradation concentration (DC50) in assay [1] (setting [4]) lay within 1.25 to 10 nM; in assay [2] it was 10 to 25 nM. In addition, the Dmax in assay [2] (MV4-11, 24 h) fell in the range of 40 to 70%.

As for `COc1cc(-c2cn(C)c(=O)c3cnccc23)cc(OC)c1CN1CCN(Cc2cccc3c2CCN(C(=O)/C(C#N)=C\C2(F)CC2)C3C)CC1` (mixture of isomers) [Compound A22, (E/Z)-2-(5-((4-(2,6-dimethoxy-4-(2-methyl-1-oxo-1,2-dihydro-2,7-naphthyridin-4-yl)benzyl)piperazin-1-yl)methyl)-1-methyl-1,2,3,4-tetrahydroisoquinoline-2-carbonyl)-3-(1-fluorocyclopropyl)acrylonitrile], the Dmax at 1 µM in assay [1] (setting [3]) is greater than 75%. Further, the results for the DC50 in assay [1] (setting [4]) and in assay [2] were 1.25 to 10 nM and less than 1.25 nM, respectively. Further, the Dmax in assay [2] (MV4-11, 24 h) was greater than 75%.

As to `COc1cc(-c2cn(C)c(=O)c3cnccc23)cc(OC)c1CN1CCN(Cc2cccc3c2CCN(C(=O)/C(C#N)=C/C2(C)CC2)C3C)CC1` (mixture of isomers) [Compound A26, (E/Z)-2-(5-((4-(2,6-dimethoxy-4-(2-methyl-1-oxo-1,2-dihydro-2,7-naphthyridin-4-yl)benzyl)piperazin-1-yl)methyl)-1-methyl-1,2,3,4-tetrahydroisoquinoline-2-carbonyl)-3-(1-methylcyclopropyl)acrylonitrile], in assay [1] (setting [3]), the Dmax at 1 µM was 40 to 70%. In addition, the values for the 50% degradation concentration (DC50) in assay [1] (setting [4]) and in assay [2] were 1.25 to 10 nM and 25 to 300 nM, respectively. In addition, the Dmax in assay [2] (MV4-11, 24 h) was 40 to 70%.

As to `COc1cc(-c2cn(C)c(=O)c3cnccc23)cc(OC)c1CN1CCN(Cc2cccc3c2CCN(C(=O)/C(C#N)=C/C2(C)COC2)C3C)CC1` (mixture of isomers) [Compound A27, (E/Z)-2-(5-((4-(2,6-dimethoxy-4-(2-methyl-1-oxo-1,2-dihydro-2,7-naphthyridin-4-yl)benzyl)piperazin-1-yl)methyl)-1-methyl-1,2,3,4-tetrahydroisoquinoline-2-carbonyl)-3-(3-methyloxetan-3-yl)acrylonitrile], in assay [1] (setting [3]), the Dmax at 1 µM fell in the range of 40 to 70%. Also, the DC50 in assay [1] (setting [4]) and in assay [2] was 1.25 to 10 nM in each case. Also, the Dmax in assay [2] (MV4-11, 24 h) was 40 to 70%.

Take `COc1cc(-c2cn(C)c(=O)c3cnccc23)cc(OC)c1CN1CCC(Oc2cccc3c2CCN(C(=O)/C(C#N)=C/C(C)(C)C)C3C)CC1` (mixture of isomers) [Compound A28, (E/Z)-2-(5-((1-(2,6-dimethoxy-4-(2-methyl-1-oxo-1,2-dihydro-2,7-naphthyridin-4-yl)benzyl)piperidin-4-yl)oxy)-1-methyl-1,2,3,4-tetrahydroisoquinoline-2-carbonyl)-4,4-dimethylpent-2-enenitrile]: in assay [1] (setting [3]), the Dmax at 1 µM lay in the range of 40 to 70%. Further, the DC50 in assay [1] (setting [4]) was 1.25 to 10 nM. In addition, in assay [2] (MV4-11, 24 h), the Dmax fell in the range of 40 to 70%.

For `COc1cc(-c2cn(C)c(=O)c3cnccc23)cc(OC)c1CN1CCCN(Cc2cccc3c2CCN(C(=O)/C(C#N)=C/C(C)(C)C)C3C)CC1` (mixture of isomers) [Compound A31, (E/Z)-2-(5-((4-(2,6-dimethoxy-4-(2-methyl-1-oxo-1,2-dihydro-2,7-naphthyridin-4-yl)benzyl)-1,4-diazepan-1-yl)methyl)-1-methyl-1,2,3,4-tetrahydroisoquinoline-2-carbonyl)-4,4-dimethylpent-2-enenitrile], the Dmax at 1 µM in assay [1] (setting [3]) was in the range of 70 to 75%. The half-maximal degradation concentration (DC50) in assay [1] (setting [4]) and in assay [2] was 1.25 to 10 nM each time. Further, the Dmax in assay [2] (MV4-11, 24 h) lay in the range of 40 to 70%.

Take `COc1cc(-c2cn(C)c(=O)c3cnccc23)cc(OC)c1CN(C)CCN(C)Cc1cccc2c1CCN(C(=O)/C(C#N)=C/C(C)(C)C)C2C` (mixture of isomers) [Compound A32, (E/Z)-2-(5-(((2-((2,6-dimethoxy-4-(2-methyl-1-oxo-1,2-dihydro-2,7-naphthyridin-4-yl)benzyl)(methyl)amino)ethyl)(methyl)amino)methyl)-1-methyl-1,2,3,4-tetrahydroisoquinoline-2-carbonyl)-4,4-dimethylpent-2-enenitrile]: the Dmax at 1 µM in assay [1] (setting [3]) fell in the range of 40 to 70%. The DC50 in assay [1] (setting [4]) is 10 to 25 nM; in assay [2], less than 1.25 nM. Further, the Dmax in assay [2] (MV4-11, 24 h) lay within 40 to 70%.

On to `COc1cc(-c2cn(C)c(=O)c3cnccc23)cc(OC)c1CN1CC2CC(C1)N2Cc1cccc2c1CCN(C(=O)/C(C#N)=C/C(C)(C)C)C2C` (mixture of isomers) [Compound A41, (E/Z)-2-(5-((3-(2,6-dimethoxy-4-(2-methyl-1-oxo-1,2-dihydro-2,7-naphthyridin-4-yl)benzyl)-3,6-diazabicyclo[3.1.1]heptan-6-yl)methyl)-1-methyl-1,2,3,4-tetrahydroisoquinoline-2-carbonyl)-4,4-dimethylpent-2-enenitrile], for which the Dmax at 1 µM in assay [1] (setting [3]) fell in the range of 70 to 75%. Also, the DC50 in assay [1] (read-out: Assay 1 DC50; Table 2; BRD9 degradation, Assay Protocol 1; 6 h of treatment) is 1.25 to 10 nM; in assay [2], 1.25 to 10 nM. Also, in assay [2] (24 h), the Dmax lay within 70 to 75%.

`COc1cc(-c2cn(C)c(=O)c3cnccc23)cc(OC)c1CN1CCN(Cc2cccc3c2CCN(C(=O)/C(C#N)=C/c2ncccc2F)C3C)CC1` (mixture of isomers) [Compound A42, (E/Z)-2-[5-[[4-[[2,6-dimethoxy-4-(2-methyl-1-oxo-2,7-naphthyridin-4-yl)phenyl]methyl]piperazin-1-yl]methyl]-1-methyl-3,4-dihydro-1H-isoquinoline-2-carbonyl]-3-(3-fluoro-2-pyridyl)prop-2-enenitrile]: the Dmax at 1 µM in assay [1] (setting [3]) was 40 to 70%. Moreover, the values for the DC50 in assay [1] (setting [4]) and in assay [2] were 10 to 25 nM and less than 1.25 nM, respectively. Moreover, the Dmax in assay [2] (MV4-11, 24 h) was 40 to 70%.

For the compound `COc1cc(-c2cn(C)c(=O)c(C)c2C)cc(OC)c1CN1CCN(Cc2cccc3c2CCN(C(=O)/C(C#N)=C/C(C)C)C3C)CC1` (mixture of isomers) [Compound A43], the Dmax at 1 µM in assay [1] (setting [3]) was 70 to 75%. Further, the DC50 in assay [1] (setting [4]) was 1.25 to 10 nM; in assay [2], less than 1.25 nM. In addition, the Dmax in assay [2] (MV4-11, 24 h) was in the range of 40 to 70%.

For the compound `COc1cc(-c2cn(C)c(=O)c3cnccc23)cc(OC)c1CN1CC2CCC(C1)N2Cc1cccc2c1CCN(C(=O)/C(C#N)=C/C(C)(C)C)C2C` (mixture of isomers) [Compound A48, (E/Z)-2-(5-((3-(2,6-dimethoxy-4-(2-methyl-1-oxo-1,2-dihydro-2,7-naphthyridin-4-yl)benzyl)-3,8-diazabicyclo[3.2.1]octan-8-yl)methyl)-1-methyl-1,2,3,4-tetrahydroisoquinoline-2-carbonyl)-4,4-dimethylpent-2-enenitrile], the Dmax at 1 µM in assay [1] (setting [3]) was greater than 75%. Moreover, the DC50 in assay [1] (setting [4]) is 1.25 to 10 nM; in assay [2], less than 1.25 nM. Besides, the Dmax in assay [2] (MV4-11, 24 h) lay within 40 to 70%.

With `COc1cc(-c2cn(C)c(=O)c(C)c2C)cc(OC)c1CN1CCN(Cc2cccc3c2CCN(C(=O)/C(C#N)=C/C2(C)COC2)C3C)CC1` (mixture of isomers) [Compound A51, (E/Z)-2-[5-[[4-[[2,6-dimethoxy-4-(1,4,5-trimethyl-6-oxo-3-pyridyl)phenyl]methyl]piperazin-1-yl]methyl]-1-methyl-3,4-dihydro-1H-isoquinoline-2-carbonyl]-3-(3-methyloxetan-3-yl)prop-2-enenitrile], the Dmax at 1 µM in assay [1] (setting [3]) lay in the range of 40 to 70%. In addition, the DC50 was 1.25 to 10 nM in assay [1] (setting [4]) and less than 1.25 nM in assay [2]. For the same compound, the Dmax in assay [2] (MV4-11, 24 h) was 40 to 70%.

Turning to `COc1cc(-c2cn(C)c(=O)c(C)c2C)cc(OC)c1CN1CCN(Cc2cccc3c2CCN(C(=O)/C(C#N)=C/c2cccc(C(F)(F)F)n2)C3C)CC1` (mixture of isomers) [Compound A53, (E/Z)-2-(5-((4-(2,6-dimethoxy-4-(1,4,5-trimethyl-6-oxo-1,6-dihydropyridin-3-yl)benzyl)piperazin-1-yl)methyl)-1-methyl-1,2,3,4-tetrahydroisoquinoline-2-carbonyl)-3-(6-(trifluoromethyl)pyridin-2-yl)acrylonitrile], the Dmax at 1 µM in assay [1] (setting [3]) fell in the range of 40 to 70%. Besides, the DC50 in assay [1] (setting [4]) fell in the range of 1.25 to 10 nM. In assay [2] (MV4-11, 24 h), the Dmax is 40 to 70%.

Usually DC50 stands for the concentration giving 50% degradation.
